{"source": "patent US20260108483A1", "about": "“METHODS AND COMPOSITIONS FOR PREVENTING THE PROGRESSION OF DIABETIC RETINOPATHY AND RELATED CONDITIONS” (Opus Genetics, Inc., priority 2023, published 2026)", "key": {"[1]": {"experiment": "Clinical study safety: treatment-emergent adverse events", "format": "in vivo, human", "source_text": "(§1) The study was configured as a placebo-controlled, double-masked, randomized, Phase 2 study in approximately 100 subjects with moderately severe to severe NPDR (diabetic retinopathy severity score [DRSS] Level 47 or 53, see FIG. 1) or mild PDR (DRSS Level 61), evaluating safety and efficacy following administration of Compound 1 twice daily for 24 weeks. The study was configured for a 1:1 randomization (placebo: Compound 1). Randomization was stratified by level of disease severity (NPDR or PDR). Subjects with mild PDR were capped at 20% for each arm. Efficacy evaluations at 12 and/or 24 weeks included DRSS, center-involved diabetic macular edema (DME), moderate PDR or PDR-related adverse events (AEs), best-corrected visual acuity (BCVA), and central subfield thickness (CST). Further experimental procedures and results are described below.\n(§2) At the Qualification/Baseline (Visit 2, Day 1): • The subject was randomized into the study. • Study medication was dispensed in accordance with the subjects randomized treatment arm. • Blood samples were drawn pre-dose for baseline levels and on Visit 9 (Week 24) for exploratory biomarker processing (i.e., cytokine and Ref-1 levels) to evaluate pharmacodynamic properties. • Subjects were instructed to administer their study medication (Compound 1 or placebo) each day, with 3 tablets every morning and 2 tablets every evening. Study medication was to be taken at approximately the same time each day and may be taken with or without food.\n(§3) Safety endpoints include: • Incidence and severity of systemic and ocular AEs, • Change from baseline in body system assessments, • Change from baseline in vital sign measurements, • Change from baseline in clinical laboratory assay results (blood chemistry, hematology), • Change from baseline in intraocular pressure (IOP), • Change from baseline in slit-lamp examination parameters, • Change from baseline in dilated funduscopic examination parameters, • Percent of subjects with a decrease of ≥10 letters in BCVA compared to baseline at Week 12 and Week 24, • Percent of subjects progressing to center-involved DME (eligible for rescue treatment at Week 12 and Week 24), • Percent of subjects with a worsening in DRSS of ≥2 steps in the study eye at Week 12 and Week 24, • Percent of subjects developing anterior segment neovascularization at Week 12 and Week 24, • Percent of subjects rescued (intravitreal anti-VEGF injection, laser PRP, focal/grid laser treatment, or surgery [vitrectomy]) at the discretion of the Investigator at Week 12 and Week 24, and • Change from baseline in estimated glomerular filtration rate (eGFR) at Week 12 and Week 24.\nAnalysis populations included: • Modified Intention-to-Treat (mITT): The mITT includes all randomized subjects who received at least one dose of study treatment and at least one post-dose efficacy measurement. […] The PP population will be used for primary endpoint analysis and to analyze efficacy endpoints. • All Randomized Population (ARP): The ARP includes all randomized subjects. This population is also known as the Intent-to-Treat (ITT) population. The ARP will be used in confirmatory efficacy analyses. • Safety Population (SP): The SP includes all randomized subjects who have received at least one dose of study treatment. The SP was used to summarize safety variables.\nProvided below is data on safety on Compound 1 orally administered to patients according to the study protocol described herein. The data is from one-hundred patients that were enrolled in the trial. Per the study protocol described above, patients enrolled in the study were randomized 1:1 for receipt of placebo versus Compound 1. The safety data below is the combined results from patients that received placebo and those received Compound 1.\nTable 9 below provides a summary of occurrence of adverse events across 100 subjects enrolled in the study, which is the combined results from patients that received placebo and those that received Compound 1. […]"}, "[2]": {"experiment": "Clinical study safety: aspartate aminotransferase in subjects' blood", "format": "in vivo, human", "conditions": "combined placebo + Compound 1 patients; for Mean Concentration of Aspartate Aminotransferase in Subjects' Blood: Baseline 19.7", "source_text": "as §1, §2\nAt the Second Treatment Visit (Visit 6, Week 12±2 Days), subjects were to return to the site for the following series of safety and efficacy assessments: drug accountability, concomitant medications, urine pregnancy test (only for women of childbearing potential), HR/BP/vital signs, BCVA (ETDRS), DRSS, CST (SD-OCT), blood draw for PK, blood chemistry, blood hematology, biomicroscopy, ophthalmoscopy, IOP, eGFR, and AEs. Following the completion of the assessments, used medication kits were collected for accountability (by counting the number of unused tablets), and new study medication kits dispensed.\nAt the Third Treatment Visit (Visit 9, Week 24±2 Days), subjects were to return to the site for the following series of safety and efficacy assessments: drug accountability, concomitant medications, urine pregnancy test (only for women of childbearing potential), physical examination, HR/BP/vital signs, BCVA (ETDRS), DRSS, CST (SD-OCT), blood chemistry, blood hematology, biomicroscopy, ophthalmoscopy, IOP, eGFR, AEs, and blood draw for exploratory biomarkers (ELISA, cytokine panel, comprehensive metabolic panel). Visit 9 (Week 24) was the end of the treatment period. Study medication was returned for accountability (by counting the number of unused tablets), and no further study medication dispensed.\nas §3, with “24. […]” for “24.”"}, "[3]": {"conditions": "100 subjects, combined placebo + Compound 1, bilateral ocular events counted twice"}, "[4]": {"conditions": "100 subjects, combined placebo + Compound 1 patients"}}}
{"smiles": "CCCCCCCCC/C(=C\\C1=C(C)C(=O)C(OC)=C(OC)C1=O)C(=O)O", "note": "[Compound 1, (E)-2-((4,5-dimethoxy-2-methyl-3,6-dioxocyclohexa-1,4-dien-1-yl)methylene)undecanoic acid]", "values": [{"measurement": "No. of Subjects That Experienced a Treatment-Emergent Adverse the Category: Anterior (eye disorder)", "setting": "[1]; [3]", "value": 5}, {"measurement": "No. of Subjects That Experienced a Treatment-Emergent Adverse the Category: Posterior (eye disorder)", "setting": "[1]; [3]", "value": 9}, {"measurement": "No. of Subjects That Experienced a Treatment-Emergent Adverse the Category: Blood or lymphatic system disorder", "setting": "[1]; [4]", "value": 1}, {"measurement": "No. of Subjects That Experienced a Treatment-Emergent Adverse the Category: Cardiac disorder", "setting": "[1]; [4]", "value": 1}, {"measurement": "No. of Subjects That Experienced a Treatment-Emergent Adverse the Category: Ear or labyrinth disorder", "setting": "[1]; [4]", "value": 1}, {"measurement": "No. of Subjects That Experienced a Treatment-Emergent Adverse the Category: Eye disorder", "setting": "[1]; [4]", "value": 9}, {"measurement": "No. of Subjects That Experienced a Treatment-Emergent Adverse the Category: Gastrointestinal disorder", "setting": "[1]; [4]", "value": 9}, {"measurement": "No. of Subjects That Experienced a Treatment-Emergent Adverse the Category: General disorders or administration site condition", "setting": "[1]; [4]", "value": 1}, {"measurement": "No. of Subjects That Experienced a Treatment-Emergent Adverse the Category: Hepatobiliary disorder", "setting": "[1]; [4]", "value": 1}, {"measurement": "No. of Subjects That Experienced a Treatment-Emergent Adverse the Category: Infection or infestation", "setting": "[1]; [4]", "value": 9}, {"measurement": "No. of Subjects That Experienced a Treatment-Emergent Adverse the Category: Injury, poisoning, or procedural complication", "setting": "[1]; [4]", "value": 1}, {"measurement": "No. of Subjects That Experienced a Treatment-Emergent Adverse the Category: Investigation", "setting": "[1]; [4]", "value": 3}, {"measurement": "No. of Subjects That Experienced a Treatment-Emergent Adverse the Category: Metabolism or nutrition disorder", "setting": "[1]; [4]", "value": 1}, {"measurement": "No. of Subjects That Experienced a Treatment-Emergent Adverse the Category: Musculoskeletal and connective tissue disorder", "setting": "[1]; [4]", "value": 5}, {"measurement": "No. of Subjects That Experienced a Treatment-Emergent Adverse the Category: Nervous system disorder", "setting": "[1]; [4]", "value": 7}, {"measurement": "No. of Subjects That Experienced a Treatment-Emergent Adverse the Category: Not coded", "setting": "[1]; [4]", "value": 4}, {"measurement": "No. of Subjects That Experienced a Treatment-Emergent Adverse the Category: Psychiatric disorder", "setting": "[1]; [4]", "value": 2}, {"measurement": "No. of Subjects That Experienced a Treatment-Emergent Adverse the Category: Reproductive system or breast disorder", "setting": "[1]; [4]", "value": 1}, {"measurement": "No. of Subjects That Experienced a Treatment-Emergent Adverse the Category: Respiratory, thoracic, or mediastinal disorder", "setting": "[1]; [4]", "value": 2}, {"measurement": "No. of Subjects That Experienced a Treatment-Emergent Adverse the Category: Skin and subcutaneous tissue disorder", "setting": "[1]; [4]", "value": 7}, {"measurement": "No. of Subjects That Experienced a Treatment-Emergent Adverse the Category: Vascular disorder", "setting": "[1]; [4]", "value": 1}, {"measurement": "safety profile", "setting": "[1]; administered according to study protocol, 600 mg/day oral, 24 weeks", "value": "good safety profile"}, {"measurement": "total treatment-emergent adverse events observed", "setting": "[1]; from 100 subjects, combined placebo + Compound 1 patients", "value": 83}, {"measurement": "subjects reporting at least one treatment-emergent adverse event", "setting": "[1]; of 100 subjects, combined placebo + Compound 1 patients", "value": 41}, {"measurement": "Mean Concentration of Aspartate Aminotransferase in Subjects' Blood", "setting": "[2]; Week 12, 53 subjects", "value": 19.2, "unit": "IU/L"}, {"measurement": "Mean Concentration of Aspartate Aminotransferase in Subjects' Blood", "setting": "[2]; Week 24, 24 subjects", "value": 17.5, "unit": "IU/L"}, {"measurement": "change in mean concentration of aspartate aminotransferase relative to Baseline", "setting": "[2]; week 12, 50 subjects", "value": "−0.5", "unit": "IU/L"}, {"measurement": "reduction in mean concentration of aspartate aminotransferase relative to Baseline", "setting": "[2]; week 12, 50 subjects", "value": 3, "unit": "%"}, {"measurement": "change in mean concentration of aspartate aminotransferase relative to Baseline", "setting": "[2]; week 24, 22 subjects", "value": "−1.8", "unit": "IU/L"}, {"measurement": "reduction in mean concentration of aspartate aminotransferase relative to Baseline", "setting": "[2]; week 24, 22 subjects", "value": 9, "unit": "%"}]}
